For 18 molecules, IC50 results are on record in patent US20250019387A1 (Frontier Medicines Corporation, priority 0001, published 2025).

Bounds are passed on as bounds.

Chain of KRAS G12C and cRAF (Ras-binding domain) interaction (P01116 other isoform, or with tags, fused parts or gaps G12C/C51S/C80L/C118S): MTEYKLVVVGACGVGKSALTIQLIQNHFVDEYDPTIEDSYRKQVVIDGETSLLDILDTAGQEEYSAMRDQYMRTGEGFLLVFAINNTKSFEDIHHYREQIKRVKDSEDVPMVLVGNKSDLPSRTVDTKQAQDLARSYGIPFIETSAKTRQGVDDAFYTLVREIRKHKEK

The target of the test is KRAS G12C and cRAF (Ras-binding domain) interaction (Homo sapiens (Human), UniProt P01116, C118S/C51S/C80L/G12C). The test is described as follows: Inhibition of KRAS G12C and cRAF binding (AlphaScreen). Particulars: GMPPNP-loaded KRAS G12C, 19-20 hours incubation with compound; read-out: IC50 (Inhibition of KRAS G12C and cRAF Binding). Put shortly:
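Compounds (DMSO) preincubated 19-20 h at room temperature, then RBD with streptavidin donor and glutathione acceptor beads added in 25 mM Hepes pH 7.4, 150 mM NaCl, 5 mM MgCl2, 0.01% Triton X-100, 2% DMSO for 60-90 min. Emission 570 nm (excitation 680 nm); IC50 by 4-parameter fit. Counter-screen used biotin-AviTag-GST instead of RBD.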
On the technique in general: Bead proximity is the source of the signal in Alpha formats.
For orientation: IC50 means the midpoint of a concentration-inhibition curve. Turning to `CN(CC1CN(C(=O)/C=C/[C@@H]2CCN2C)C1)c1nc(OC[C@@]23CCCN2C[C@H](F)C3)nc2c(F)c(-c3cccc4cccc(Cl)c34)ncc12` [Example 218, (E)-1-(3-(((7-(8-chloronaphthalen-1-yl)-8-fluoro-2-(((2R,7aS)-2-fluorotetrahydro-1H-pyrrolizin-7a(5H)-yl)methoxy)pyrido[4,3-d]pyrimidin-4-yl)(methyl)amino)methyl)azetidin-1-yl)-3-((S)-1-methylazetidin-2-yl)prop-2-en-1-one], the IC50 lay in the range of 10 to 100 nM.
Next, `CN(CC1CN(C(=O)/C=C/[C@H]2CCN2C)C1)c1nc(OC[C@@]23CCCN2C[C@H](F)C3)nc2c(F)c(-c3cccc4cccc(Cl)c34)ncc12` [Example 219, (E)-1-(3-(((7-(8-chloronaphthalen-1-yl)-8-fluoro-2-(((2R,7aS)-2-fluorotetrahydro-1H-pyrrolizin-7a(5H)-yl)methoxy)pyrido[4,3-d]pyrimidin-4-yl)(methyl)amino)methyl)azetidin-1-yl)-3-((R)-1-methylazetidin-2-yl)prop-2-en-1-one]: 10 to 100 nM.
Next, `CN(CC1CN(C(=O)/C=C/[C@@H]2CCN2C)C1)c1nc(OC[C@@]23CCCN2C[C@H](F)C3)nc2c(F)c(-c3cccc4ccc(F)c(Cl)c34)ncc12` [Example 220, (E)-1-(3-(((7-(8-chloro-7-fluoronaphthalen-1-yl)-8-fluoro-2-(((2R,7aS)-2-fluorotetrahydro-1H-pyrrolizin-7a(5H)-yl)methoxy)pyrido[4,3-d]pyrimidin-4-yl)(methyl)amino)methyl)azetidin-1-yl)-3-((S)-1-methylazetidin-2-yl)prop-2-en-1-one]: < 10 nM; `CN(CC1CN(C(=O)/C=C/[C@H]2CCN2C)C1)c1nc(OC[C@@]23CCCN2C[C@H](F)C3)nc2c(F)c(-c3cccc4ccc(F)c(Cl)c34)ncc12` [Example 221, (E)-1-(3-(((7-(8-chloro-7-fluoronaphthalen-1-yl)-8-fluoro-2-(((2R,7aS)-2-fluorotetrahydro-1H-pyrrolizin-7a(5H)-yl)methoxy)pyrido[4,3-d]pyrimidin-4-yl)(methyl)amino)methyl)azetidin-1-yl)-3-((R)-1-methylazetidin-2-yl)prop-2-en-1-one]: < 10 nM.
Next, `CN(c1nc(OC[C@@]23CCCN2C[C@H](F)C3)nc2c(F)c(-c3cccc4ccc(F)c(Cl)c34)ncc12)[C@@H]1CCN(C(=O)/C=C/[C@H]2CCN2CCO)C1` [Example 222, (E)-1-((R)-3-((7-(8-chloro-7-fluoronaphthalen-1-yl)-8-fluoro-2-(((2R,7aS)-2-fluorotetrahydro-1H-pyrrolizin-7a(5H)-yl)methoxy)pyrido[4,3-d]pyrimidin-4-yl)(methyl)amino)pyrrolidin-1-yl)-3-((R)-1-(2-hydroxyethyl)azetidin-2-yl)prop-2-en-1-one]: < 10 nM; `CCN1CC[C@@H]1/C=C/C(=O)N1CC[C@@H](N(C)c2nc(OC[C@@]34CCCN3C[C@H](F)C4)nc3c(F)c(-c4cccc5cccc(Cl)c45)ncc23)C1` [Example 223, (E)-1-((R)-3-((7-(8-chloronaphthalen-1-yl)-8-fluoro-2-(((2R,7aS)-2-fluorotetrahydro-1H-pyrrolizin-7a(5H)-yl)methoxy)pyrido[4,3-d]pyrimidin-4-yl)(methyl)amino)pyrrolidin-1-yl)-3-((R)-1-ethylazetidin-2-yl)prop-2-en-1-one]: 10 to 100 nM; `CN(c1nc(OC[C@@]23CCCN2C[C@H](F)C3)nc2c(F)c(-c3cccc4cccc(Cl)c34)ncc12)[C@@H]1CCN(C(=O)/C=C/[C@H]2CCN2CC2COC2)C1` [Example 224, (E)-1-((R)-3-((7-(8-chloronaphthalen-1-yl)-8-fluoro-2-(((2R,7aS)-2-fluorotetrahydro-1H-pyrrolizin-7a(5H)-yl)methoxy)pyrido[4,3-d]pyrimidin-4-yl)(methyl)amino)pyrrolidin-1-yl)-3-((R)-1-(oxetan-3-ylmethyl)azetidin-2-yl)prop-2-en-1-one]: 10 to 100 nM.
`CN(c1nc(OC[C@@]23CCCN2C[C@H](F)C3)nc2c(F)c(-c3cccc4ccc(F)c(Cl)c34)ncc12)[C@@H]1CCN(C(=O)C#CCN2CC(F)C2)C1` [Example 225, 1-((R)-3-((7-(8-chloro-7-fluoronaphthalen-1-yl)-8-fluoro-2-(((2R,7aS)-2-fluorohexahydro-1H-pyrrolizin-7a-yl)methoxy)pyrido[4,3-d]pyrimidin-4-yl)(methyl)amino)pyrrolidin-1-yl)-4-(3-fluoroazetidin-1-yl)but-2-yn-1-one]: the IC50 lay in the range of 10 to 100 nM.
Consider `CN(CC1CN(C(=O)/C=C/c2nc(C(C)(C)O)no2)C1)c1nc(OCC23CCCN2CCC3)nc2c(F)c(-c3cccc4ccc(F)c(Cl)c34)ncc12` [Example 229, (E)-1-(3-(((7-(8-chloro-7-fluoronaphthalen-1-yl)-8-fluoro-2-((tetrahydro-1H-pyrrolizin-7a(5H)-yl)methoxy)pyrido[4,3-d]pyrimidin-4-yl)(methyl)amino)methyl)azetidin-1-yl)-3-(3-(2-hydroxypropan-2-yl)-1,2,4-oxadiazol-5-yl)prop-2-en-1-one], for which the IC50 is < 10 nM.
Regarding `CN(c1nc(OC[C@@]23CCCN2C[C@H](F)C3)nc2c(F)c(-c3cccc4cccc(Cl)c34)ncc12)[C@@H]1CCN(C(=O)/C=C/c2ncncc2F)C1` [Example 230, (E)-1-((R)-3-((7-(8-chloronaphthalen-1-yl)-8-fluoro-2-(((2R,7aS)-2-fluorotetrahydro-1H-pyrrolizin-7a(5H)-yl)methoxy)pyrido[4,3-d]pyrimidin-4-yl)(methyl)amino)pyrrolidin-1-yl)-3-(5-fluoropyrimidin-4-yl)prop-2-en-1-one], the 50% inhibitory concentration (IC50) is 10 to 100 nM.
For the molecule `CC(C)N1CC[C@@H]1/C=C/C(=O)N1CC[C@@H](N(C)c2nc(OC[C@@]34CCCN3C[C@H](F)C4)nc3c(F)c(-c4cccc5cccc(Cl)c45)ncc23)C1` [Example 232, (E)-1-((R)-3-((7-(8-chloronaphthalen-1-yl)-8-fluoro-2-(((2R,7aS)-2-fluorotetrahydro-1H-pyrrolizin-7a(5H)-yl)methoxy)pyrido[4,3-d]pyrimidin-4-yl)(methyl)amino)pyrrolidin-1-yl)-3-((R)-1-isopropylazetidin-2-yl)prop-2-en-1-one], the IC50 lay within 10 to 100 nM.
For `CN(c1nc(OC[C@@]23CCCN2C[C@H](F)C3)nc2c(F)c(-c3cccc4cccc(Cl)c34)ncc12)[C@@H]1CCN(C(=O)/C=C/[C@H]2CCN2CCO)C1` [Example 233, (E)-1-((R)-3-((7-(8-chloronaphthalen-1-yl)-8-fluoro-2-(((2R,7aS)-2-fluorotetrahydro-1H-pyrrolizin-7a(5H)-yl)methoxy)pyrido[4,3-d]pyrimidin-4-yl)(methyl)amino)pyrrolidin-1-yl)-3-((R)-1-(2-hydroxyethyl)azetidin-2-yl)prop-2-en-1-one] the value was 10 to 100 nM; for `COCCN1CC[C@@H]1/C=C/C(=O)N1CC[C@@H](N(C)c2nc(OC[C@@]34CCCN3C[C@H](F)C4)nc3c(F)c(-c4cccc5cccc(Cl)c45)ncc23)C1` [Example 234, (E)-1-((R)-3-((7-(8-chloronaphthalen-1-yl)-8-fluoro-2-(((2R,7aS)-2-fluorotetrahydro-1H-pyrrolizin-7a(5H)-yl)methoxy)pyrido[4,3-d]pyrimidin-4-yl)(methyl)amino)pyrrolidin-1-yl)-3-((R)-1-(2-methoxyethyl)azetidin-2-yl)prop-2-en-1-one], 10 to 100 nM.
Next, `COCCN(C)C/C=C/C(=O)N1CC[C@@H](N(C)c2nc(OC[C@@]34CCCN3C[C@H](F)C4)nc3c(F)c(-c4cccc5cccc(Cl)c45)ncc23)C1` [Example 235, (E)-1-((R)-3-((7-(8-chloronaphthalen-1-yl)-8-fluoro-2-(((2R,7aS)-2-fluorohexahydro-1H-pyrrolizin-7a-yl)methoxy)pyrido[4,3-d]pyrimidin-4-yl)(methyl)amino)pyrrolidin-1-yl)-4-((2-methoxyethyl)(methyl)amino)but-2-en-1-one]: < 10 nM; `C=CC(=O)N1C[C@H](F)[C@@H](N(C)c2nc(OCC34CCCN3CCC4)nc3c(F)c(-c4cccc5ccc(F)c(Cl)c45)ncc23)C1` [Example 237, 1-((3S,4S)-3-((7-(8-chloro-7-fluoronaphthalen-1-yl)-8-fluoro-2-((tetrahydro-1H-pyrrolizin-7a(5H)-yl)methoxy)pyrido[4,3-d]pyrimidin-4-yl)(methyl)amino)-4-fluoropyrrolidin-1-yl)prop-2-en-1-one]: 10 to 100 nM; `CN(c1nc(OC[C@@]23CCCN2C[C@H](F)C3)nc2c(F)c(-c3cccc4cccc(Cl)c34)ncc12)[C@@H]1CCN(C(=O)C#CC2COCCN2)C1` (stereo partly drawn) [Example 238, 1-((R)-3-((7-(8-chloronaphthalen-1-yl)-8-fluoro-2-(((2R,7aS)-2-fluorohexahydro-1H-pyrrolizin-7a-yl)methoxy)pyrido[4,3-d]pyrimidin-4-yl)(methyl)amino)pyrrolidin-1-yl)-3-(morpholin-3-yl)prop-2-yn-1-one]: 10 to 100 nM.
Consider `C=CC(=O)N1C[C@H](N(C)c2nc(OC[C@@]34CCCN3C[C@H](F)C4)nc3c(F)c(-c4cccc5cccc(Cl)c45)ncc23)C(F)(F)C1` [Example 239, 1-((S)-4-((7-(8-chloronaphthalen-1-yl)-8-fluoro-2-(((2R,7aS)-2-fluorotetrahydro-1H-pyrrolizin-7a(5H)-yl)methoxy)pyrido[4,3-d]pyrimidin-4-yl)(methyl)amino)-3,3-difluoropyrrolidin-1-yl)prop-2-en-1-one], for which the IC50 fell in the range of 10 to 100 nM.
For `Cc1ncc(F)c(/C=C/C(=O)N2CC[C@@H](N(C)c3nc(OC[C@@]45CCCN4C[C@H](F)C5)nc4c(F)c(-c5cccc6cccc(Cl)c56)ncc34)C2)n1` [Example 241, (E)-1-((R)-3-((7-(8-chloronaphthalen-1-yl)-8-fluoro-2-(((2R,7aS)-2-fluorotetrahydro-1H-pyrrolizin-7a(5H)-yl)methoxy)pyrido[4,3-d]pyrimidin-4-yl)(methyl)amino)pyrrolidin-1-yl)-3-(5-fluoro-2-methylpyrimidin-4-yl)prop-2-en-1-one] the value was 100 to 500 nM.
